Legend:
barnyardgrass (ECHCG) = test: Test 32 greenhouse, simulated flooded rice culture; format: in vivo, Echinochloa crus-galli; design: scale not given here; conditions: postemergence to flood, 21 DAA
Experimental: A greenhouse trial was conducted to evaluate the effects of Compound 1 and isoxadifen-ethyl at different ratios in simulated flooded rice culture. Plastic pots (11-cm diameter) were partially filled with non-sterilized Tama silt loam soil containing a 15:57:28 ratio of sand, silt and clay and 2.9% organic matter. Seeds of Heteranthera limosa (ducksalad; HETLI), Cyperus difformis (smallflower umbrella sedge; CYPDI), one stand of Echinochloa crus-galli (barnyardgrass; ECHCG), and one stand of four rice seedlings (Oryza sativa cv. ‘M202’; ORYSA) were planted into a single 11-cm diameter pot for each rate and mixture of rates. To obtain this planting, C. difformis and H. limosa seeds were planted separately on the surface soil layer at particular locations within each pot. Water levels were brought to a puddled condition above the soil surface directly after planting. E. crus-galli and rice seeds were planted in cavity trays in the silt loam soil and transplanted at the 1.5 and 2.0 leaf stage, respectively. E. crus-galli and rice plants were transplanted to about 2-cm depth by transferring plugs from the cavity trays. Plantings were sequential so that these plant species all reached the 2.0- to 2.5-leaf stage in the 11-cm diameter pot at time of treatment. Plantings were established and maintained in a greenhouse with day and night temperatures of about 29.5 and 26.7° C. respectively; supplemental balanced lighting was provided to maintain a 16-hour photoperiod. Pots were fertilized periodically with a 200 ppm solution of commercial Scotts Peters® Professional® General Purpose 20-20-20 Water Soluble Fertilizer, amended to 10 ppm with a commercial iron-chelate micronutrient fertilizer. The solution was supplied at time of watering via a liquid fertilizer injector.
At treatment time, test pots were flooded to 3 cm above the soil surface and maintained at that water depth for the duration of the test. Chemical treatments were formulated in acetone and applied directly to the paddy water (i.e., postemergence to flood). Make-up volumes of acetone were added to ensure that all pots were treated with a consistent volume. Test pots were maintained in the greenhouse. A randomized complete block design was employed. Five replicates of each treatment, alone and in mixture, were used. Each species was visually evaluated for treatment effects by comparing those treated to untreated controls and rated for plant response after 21 days.

kochia (KCHSC) = test: Test 4 field trial, postemergence; format: in vivo, Kochia scoparia
Experimental: A field trial was conducted to evaluate the effects of mixtures of Compound 2 with commercial herbicides on spring wheat (TRZAS, Triticum aestivum L.) and several weed species. Wheat seeds (cv. ‘AC Intrepid’) were planted in late spring season, 3.8 cm deep in a loam soil having 2.7% organic matter and a pH of 7. Plots were 6 m long by 2.5 m wide. The field was managed using no-till practices. The plots were arranged in a randomized complete block design with each treatment being replicated four times. Treatments were applied postemergence 25 days after planting using a backpack sprayer delivering a spray volume of 55 L/ha using a pressure of 276 kPa. […] Compound 2 and clodinafop treatments, alone and in combination, also included a surfactant. Weed species present in the experimental plots in sufficient quantity to be evaluated included wild oat (AVEFA, Avena fatua L.), common lambsquarters (CHEAL, Chenopodium album L.), kochia (KCHSC, Kochia scoparia (L.) Schrad.), wild buckwheat (POLCO, Polygonum convolvulus L.), Russian thistle (SASKR, Salsola kali L. ssp. ruthenica (Iljin) Soo), and field pennycress (THLAR, Thlaspi arvense L.). […] Common lambsquarters was evaluated only at 14 days after application. […] Results are the means of the four replicates.

oak species (QUESS) = test: Test 13 field trial, postemergence, brush weeds; format: in vivo, Quercus L. spp.; conditions: 56 DAA; g a.i./ha: Cpd 2 250; Fosamine-ammonium 6700
From the text: Plots were established in non-crop land and were 6.1 m long by 3.0 m wide. […] Treatments were applied postemergence to the brush weeds using a backpack sprayer delivering a spray volume of 468 L/ha using a pressure of 241 kPa. […] All treatments also included a surfactant. […] Results are the means of the three replicates.

velvetleaf (ABUTH) = test: Test 17 greenhouse, post- and preemergence; format: in vivo, Abutilon theophrasti; conditions: 12 DAA
From the text: Plants were watered as needed.

redroot pigweed (AMARE) = test: Test 25 field trial, postemergence, growth as percent of control; format: in vivo, Amaranthus retroflexus
From the text: Corn seeds (hybrid ‘Pioneer 31G96 RR’) were planted in mid spring season, 3.8 cm deep in a clay loam soil having 2% organic matter and a pH of 6.6. Plots were 6.1 m long by 3.0 m wide with rows spaced 76 cm apart. Seeds were spaced 15 cm apart within the rows. The field was managed using conventional tillage practices. […] Giant ragweed and Pennsylvania smartweed could only be evaluated 14 days after application. […] Results are the means of the three replicates. This growth inhibition data was converted to results in the form of “plant growth as a percent of control plant growth” using the calculation “100 minus growth inhibition”.
When this form of Colby's Equation is used, if the observed effects on weeds are less than the expected values, the mixture is synergistic.

corn (ZEAMD) = test: Test 28 greenhouse, post- and preemergence; format: in vivo, Zea mays ssp. indentata; design: scale not given here; conditions: 26 DAA
Experimental: A greenhouse test was conducted to evaluate the effects on the plant species corn (ZEAMD, Zea mays ssp. indentata), sorghum (SORVU, Sorghum vulgare L.), dry-seeded rice (ORYSA, Oryza sativa L.), wheat (TRZAW, Triticum aestivum L.), ivyleaf morningglory (IPOHE, Ipomoea hederacea (L.) JACQ.), and barnyardgrass (ECHCG, Echinochloa crus-galli (L.) P. BEAUV.), of mixtures of Compound 2 with isoxadifen-ethyl. Corn, sorghum, rice, wheat, ivyleaf morningglory and barnyardgrass seeds were planted in RediEarth, a commercial potting medium. […] Corn plants were treated postemergence at the V2 growth stage, and sorghum, rice, wheat, ivyleaf morningglory, and barnyardgrass plants were treated postemergence at the 3-leaf stage. […] Each treatment was replicated three times. […] Plants were watered as needed.

Nc1nc(C2CC2)nc(C(=O)O)c1Cl [Compound 1, 6-amino-5-chloro-2-cyclopropyl-4-pyrimidinecarboxylic acid] was tested, and the “ECHCG Obs” value (barnyardgrass (ECHCG); Cpd 1 31.25 g a.i./ha) was 10, the “ECHCG Obs” value (barnyardgrass (ECHCG); Cpd 1 62.5 g a.i./ha) was 19 and the “ECHCG Obs” value (barnyardgrass (ECHCG); Cpd 1 125 g a.i./ha) was 37.

COC(=O)c1nc(C2CC2)nc(N)c1Cl [Compound 2, methyl 6-amino-5-chloro-2-cyclopropyl-4-pyrimidinecarboxylate] was tested, and the “KCHSC Obs” value (kochia (KCHSC); 14 DAA, Cpd 2 30 g a.i./ha alone or with clodinafop 56 or fenoxaprop 90) was 95, the “KCHSC Obs” value (kochia (KCHSC); 35 DAA, Cpd 2 30 g a.i./ha alone or with clodinafop 56 or fenoxaprop 90) was 99 and the “KCHSC Obs” value (kochia (KCHSC); 35 DAA, Cpd 2 60 g a.i./ha alone) was 96. For the same molecule, the “QUESS Obs” value (oak species (QUESS)) was 33, the “Obs response, scale 0 to 100” value (velvetleaf (ABUTH); Postemergence, 15 g a.i./ha) was 29 and the “Obs response, scale 0 to 100” value (velvetleaf (ABUTH); Postemergence, 30 g a.i./ha) was 30. The “Obs response, scale 0 to 100” value (velvetleaf (ABUTH); Postemergence, 45 g a.i./ha) was 45, the “Obs response, scale 0 to 100” value (velvetleaf (ABUTH); Preemergence, 15 g a.i./ha) was 10 and the “Obs response, scale 0 to 100” value (velvetleaf (ABUTH); Preemergence, 30 g a.i./ha) was 24. For the same molecule, the “Obs response, scale 0 to 100” value (velvetleaf (ABUTH); Preemergence, 45 g a.i./ha) was 45, the “AMARE Obs (percent of control)” value (redroot pigweed (AMARE); Cpd 2 15 g a.i./ha, 14 DAA) was 47% and the “AMARE Obs (percent of control)” value (redroot pigweed (AMARE); Cpd 2 15 g a.i./ha, 28 DAA) was 38%. For the same molecule, the “AMARE Obs (percent of control)” value (redroot pigweed (AMARE); Cpd 2 15 g a.i./ha, 56 DAA) was 0%, the “AMARE Obs (percent of control)” value (redroot pigweed (AMARE); Cpd 2 30 g a.i./ha, 14 DAA) was 35% and the “AMARE Obs (percent of control)” value (redroot pigweed (AMARE); Cpd 2 30 g a.i./ha, 28 DAA) was 22%. For the same molecule, the “AMARE Obs (percent of control)” value (redroot pigweed (AMARE); Cpd 2 30 g a.i./ha, 56 DAA) was 0%, the “AMARE Obs (percent of control)” value (redroot pigweed (AMARE); Cpd 2 45 g a.i./ha, 14 DAA) was 28% and the “AMARE Obs (percent of control)” value (redroot pigweed (AMARE); Cpd 2 45 g a.i./ha, 28 DAA) was 20%. For the same molecule, the “AMARE Obs (percent of control)” value (redroot pigweed (AMARE); Cpd 2 45 g a.i./ha, 56 DAA) was 28%, the “ZEAMD Obs” value (corn (ZEAMD); postemergence, Cpd 2 32 g a.i./ha) was 27 and the “ZEAMD Obs” value (corn (ZEAMD); postemergence, Cpd 2 64 g a.i./ha) was 50. For the same molecule, the “ZEAMD Obs” value (corn (ZEAMD); preemergence, Cpd 2 32 g a.i./ha) was 7 and the “ZEAMD Obs” value (corn (ZEAMD); preemergence, Cpd 2 64 g a.i./ha) was 7.
